Results as given in ChEMBL document CHEMBL1138026, “Ketopyrrolidines and ketoazetidines as potent dipeptidyl peptidase IV (DPP IV) inhibitors” (Bioorg Med Chem Lett, 2004).

Key:
[1] = Inhibitory concentration against dipeptidyl peptidase IV
[2] = Inhibition constant against dipeptidyl peptidase IV

Compound	IC50 [1]	Ki [2]
O=C(c1nc2ccccc2s1)[C@@H]1CCN1C(=O)CNC1CCCCC1	190 nM	
C[C@H](N)C(=O)N1CCCC1P(=O)(Oc1ccccc1)Oc1ccccc1 (stereo not given in full)	15 nM	
O=C(c1nc2ccccc2s1)[C@@H]1CCCN1C(=O)CNC1CCCCC1	300 nM	
O=c1c(C2CCCCC2)nc(-c2nccs2)c2n1CCC2	> 100000 nM	
CCC(C)C(N)C(=O)N1CCC[C@H]1C(=O)c1nc2ccccc2s1 (stereo not given in full)	100 nM	
N[C@@H](C(=O)N1CCCC[C@H]1C(=O)c1nccs1)C1CCCCC1	> 100000 nM	
N[C@@H](C(=O)N1CC[C@@H]1C(=O)c1nccs1)C1CCCCC1	40 nM	
N[C@@H](C(=O)N1CCC[C@@H]1C(=O)c1nccs1)C1CCCCC1	1000 nM	
N[C@@H](C(=O)N1CCCC[C@@H]1C(=O)c1nccs1)C1CCCCC1	> 100000 nM	
N[C@H](C(=O)N1CCSC1)C1CCCCC1	150 nM	
CC[C@H](C)[C@H](N)C(=O)N1CC[C@H]1C(=O)c1nc2ccccc2s1	200 nM	
N[C@H](C(=O)N1CCCC1)C1CCCCC1	125 nM	
N#C[C@@H]1CCCN1C(=O)[C@@H](N)C1CCCCC1	8 nM	
CC(C)(C)NCC(=O)N1CCC1C(=O)c1nc2ccccc2s1 (stereo not given)	100 nM	
O=C(c1nc2ccccc2s1)C1CCN1C(=O)[C@@H]1C[C@@H]2CCCC[C@@H]2N1 (stereo not given in full)	115 nM	
O=C(c1ccccc1)[C@@H]1CCCN1C(=O)[C@@H]1C[C@@H]2CCCC[C@@H]2N1	> 100000 nM	
O=C(c1cccnc1)[C@@H]1CCCN1C(=O)[C@@H]1C[C@@H]2CCCC[C@@H]2N1	> 100000 nM	
Cn1cncc1C(=O)[C@@H]1CCCN1C(=O)[C@@H]1C[C@@H]2CCCC[C@@H]2N1	> 100000 nM	
CC(=O)[C@@H]1CCCN1C(=O)[C@@H]1C[C@@H]2CCCC[C@@H]2N1	> 100000 nM	
CC(C)[C@H](N)C(=O)N1CCC[C@H]1B(O)O [TALABOSTAT]		2 nM
